Test results as given in patent publication US8772241B2, “Peptide and use thereof” (Ensoltek Co., Ltd., priority 2010, dated 2014).

What was measured:
[1] = system: type II collagen (COL2A1); assay: Articular chondrocyte pellet, RT-PCR expression of type II collagen; details: for Relative expression of Type II collagen (%) (Mean ± SD): no treatment = 100, n=3, peptide as in Example 1 test (25 μM)
Method: (§1) In order to ensure that cellular properties of articular chondrocytes are maintained similarly to those of biological tissue, the cells were pelleted and cultured.
Cartilage tissue was prepared from hoof joints of less than 3-year old cows within one hour of being sacrificed at a regional slaughterhouse (located in Ojeong-dong, Daejeon, South Korea). For this purpose, a cartilage portion other than bone was cut using a surgical knife and collected to use. The cartilage tissue was sliced into a hexahedron of about 1 mm long at each side and placed in DMEM/F12 (Welgene) supplemented with Pronase (1 mg/ml, Roche), followed by reaction in a 5% CO2 incubator at 37° C. for 1.5 hours. The Pronase-treated tissue was washed twice with PBS(phosphate buffered saline) and then once with DMEM/F12. The washed cartilage tissue was placed in DMEM/F12 supplemented with 5% FBS (fetal bovine serum) (Invitrogen), Collagenase P (0.25 mg/ml, Roche) and DNase I (20 μg/ml, Sigma) and was allowed to react in a 5% CO2 incubator at 37° C. for 8 to 12 hours, such that the tissue was completely degraded. After the degradation was completed, the cells were collected by centrifugation at 500 xg for 15 minutes and washed twice with PBS. The cells were suspended at a cell density of 2×10^6 cells/ml in DMEM/F12 supplemented with 10% FBS and ascorbate (50 μg/ml, Sigma), and lml/tube of the cells were dispensed into 15 ml conical tubes. The cells were pelleted by centrifugation at 500 xg for 10 minutes and cultured in a 5% CO2 incubator at 37° C. for 2 days, thereby preparing a cell pellet which is solid. The pellet was transferred to a 24-well plate and cultured for 5 days. […] On Day 13, the cells were cultured in serum-free media for 24 hours.
RNA was isolated from the cultured pellet using TRIZOL (Invitrogen) and quantified by absorbance at 260 nm. cDNA was synthesized from 2.25 μg of RNA, using a random hexamer and 5× Reverse Transcriptase Master premix (Elpis Biotech, South Korea). Using 1 μl of synthesized cDNA, amplification was carried out by polymerase chain reaction (PCR) to investigate expression levels of genes. The genes to be investigated are as follows: a gene for chondrocyte-characteristic type II collagen (COL2A1) as a gene for confirming the regeneration of articular cartilage tissue; a gene for matrix metallopeptidase 13 (MMP13) which is over-expressed in damaged cartilage tissue and is involved in the degradation of the matrix, as a gene for confirming whether or not it is capable of preventing additional cartilage damage; and a gene for type X collagen (COL10A1) characteristic to hypertrophic chondrocytes involved in the ossification of articular tissue, as a gene for confirming whether or not it is over-activated and progressed to ossification.
Specifically, PCR was carried out under the following reaction conditions. The PCR reaction employed 1 μl of cDNA, 10 μl of 2× Taq polymerase master mix (Solgent), 0.5 μl of each primer set (10 pmole/μl), and 8 μl of distilled water. PCR amplification consisted of denaturation at 94° C. for 2 minutes, followed by reaction at 94° C. for 30 seconds, at 58° C. for 45 seconds and at 72° C. or 1 minute, with 32 cycles for Type II collagen, Type X collagen and MMP13, and 26 cycles for GAPDH, respectively.

[2] = system: damaged cartilage tissue explants (articular chondrocyte explants); assay: Cartilage regeneration in damaged cartilage tissue explants; format: cell-based, cows; details: for changes in damaged region of explant (micrograph, FIG. 1): 25 μM peptide
Method: Using a syringe (21G) whose tip was truncated and ground, damaged regions were prepared by making vertical holes to the surface uniformly at the center of the explant.
The perforated tissue explants were divided into 4 groups including a control group. […] In addition, the 1-week-incubated tissue explant and the 6-week-incubated tissue explant were fixed, respectively, in a 3.7% formaldehyde/phosphate buffered saline(3.7% formaldehyde/PBS). Then, according to the experimental method of standard histochemistry, paraffin section slides were prepared, followed by hematoxylin & eosin (H&E) staining and microscopic examination of cell shape and distribution in terms of morphology. Collagen was subjected to Masson's trichrome staining, and the shape and distribution of cells in the tissue were examined under a microscope. For comparison, the control group was treated in the same manner as in the group treated with the peptide of Example 1, except that the peptide of Example 1 was not treated.

[3] = system: matrix metallopeptidase 13 (MMP13); assay: Articular chondrocyte pellet, RT-PCR expression of MMP13; format: cell-based, cows; details: 25 μM peptide; normalized to GAPDH
Method: as §1
(§2) Cartilage tissue was prepared from hoof joints of less than 3-year old cows within one hour of being sacrificed at a regional slaughterhouse (located in Ojeong-dong, Daejeon, South Korea). For this purpose, a cartilage portion other than bone was cut using a surgical knife and collected to use. The cartilage tissue was sliced into a hexahedron of about 1 mm long at each side and placed in DMEM/F12 (Welgene) supplemented with Pronase (1 mg/ml, Roche), followed by reaction in a 5% CO2 incubator at 37° C. for 1.5 hours. The Pronase-treated tissue was washed twice with PBS(phosphate buffered saline) and then once with DMEM/F12. The washed cartilage tissue was placed in DMEM/F12 supplemented with 5% FBS (fetal bovine serum) (Invitrogen), Collagenase P (0.25 mg/ml, Roche) and DNase I (20 μg/ml, Sigma) and was allowed to react in a 5% CO2 incubator at 37° C. for 8 to 12 hours, such that the tissue was completely degraded. […]
(§3) RNA was isolated from the cultured pellet using TRIZOL (Invitrogen) and quantified by absorbance at 260 nm. cDNA was synthesized from 2.25 μg of RNA, using a random hexamer and 5× Reverse Transcriptase Master premix (Elpis Biotech, South Korea). […]

[4] = system: type X collagen (COL10A1); assay: Articular chondrocyte pellet, RT-PCR expression of type X collagen; format: cell-based, cows; details: 25 μM peptide; normalized to GAPDH
Method: as §1, §2, §3

[5] = system: degenerative arthritis model; assay: Cartilage regeneration in degenerative arthritis model (anterior cruciate ligament excision); format: in vivo, New Zealand white rabbits; details: intra-articular cavity injection once a week for 4 weeks
Method: As experimental animals, 18 to 22-week-old male New Zealand white rabbits (n=10), weighing 3 to 3.5 kg, were purchased from Orient Bio Inc. (South Korea). The animal experiments were performed in accordance with guidelines of the Institute of Laboratory Animal Resources (ILAR) under approval of Institutional Animal Care and Use Committee of Samsung Biomedical Research Institute (SBRI, Seoul, South Korea). Degeneration of articular cartilage was induced by surgically dissecting the patellar anterior cruciate ligament of rabbits and breeding the animals in a cage for 4 weeks. The animals were divided into a control group and an experimental group.
The rabbits were put under general anesthesia by intramuscularly injecting 2.5 mg/kg of xylazine (Rompun, Bayer) and 8 mg/kg of Tiletamine/Zolazepam (Zoletil, Virbac). Then, the patellar joints of right hind legs of animals were shaved and disinfected. Patellar skins and joint capsules were excised and patellae were displaced to expose anterior cruciate ligaments. Thereafter, the ligament was excised using a razor blade (No. 11) and the joint capsule and skin were sutured. After the surgical operation was completed, the rabbits were raised in a cage for 4 weeks while allowing for routine motion. The animals were housed under the following conditions: temperature of 20 to 25° C. humidity of 10% to 50%, and Light/Dark (L/D) cycle: (light from 08:00 a.m. to 20:00 p.m.). All animals were fed once a day. At Week 4 after the surgical operation, the rabbits were divided into two groups, followed by intra-articular cavity injection. The control group was given an injection of a vehicle (5% lactose/physiological saline). For the experimental group, 200 μl of 52.5 μM peptide solution was injected to the group to which 30 μM of the peptide of Example 1 was administered, and 200 μl of 157.5 μM peptide solution was injected to the group to which 90 μM of the peptide of Example 1 was administered. The above-mentioned peptide was prepared in a solvent of 5% lactose/physiological saline prior to use. An injection was given once a week for 4 weeks. 1 and 5 weeks after the final injection (Week 8 and 12 after the first operation), the experimental animals were euthanized by vascular injection of 1 to 2 mM/kg of KCl under deep anesthesia.
The proximal portion (femoral region) of the patellar articular bone was excised. For the comparison with normal tissue, left normal articular region was also additionally excised, followed by naked-eye examination and photographing. The excised articular regions were fixed in 10% formalin, decalcified by using a decalcifier solution (CalciClear Rapid, National Diagnostics), and then made into paraffin blocks. The frontal plane of articular bone was cut into a thickness of 4 μm, thereby preparing a slide. […]

Substance	Relative expression of Type II collagen (%) (Mean ± SD) [1]	also measured
Asp-Leu-Arg-Leu-Asp (DLRLD; Artificial peptide sequence prepared by coupling amino acid units one by one from the C-terminal, by Fmoc SPPS (9-flourenlymethyloxycarbonyl solid phase peptide synthesis) using an automated peptide synthesizer.) [Example 11]	157 ± 34%	
Asp-Leu-Arg-Leu-Glu (DLRLE; Artificial peptide sequence prepared by coupling amino acid units one by one from the C-terminal, by Fmoc SPPS (9-flourenlymethyloxycarbonyl solid phase peptide synthesis) using an automated peptide synthesizer.) [Example 12]	159 ± 28%	
Asp-Leu-His-Leu-Asp (DLHLD; Artificial peptide sequence prepared by coupling amino acid units one by one from the C-terminal, by Fmoc SPPS (9-flourenlymethyloxycarbonyl solid phase peptide synthesis) using an automated peptide synthesizer.) [Example 7]	190 ± 38%	
Asp-Leu-His-Leu-Glu (DLHLE; Artificial peptide sequence prepared by coupling amino acid units one by one from the C-terminal, by Fmoc SPPS (9-flourenlymethyloxycarbonyl solid phase peptide synthesis) using an automated peptide synthesizer.) [Example 8]	115 ± 42%	
Asp-Leu-Lys-Leu-Asp (DLKLD; Artificial peptide sequence prepared by coupling amino acid units one by one from the C-terminal, by Fmoc SPPS (9-flourenlymethyloxycarbonyl solid phase peptide synthesis) using an automated peptide synthesizer.) [Example 9]	147 ± 41%	
Asp-Leu-Lys-Leu-Glu (DLKLE; Artificial peptide sequence prepared by coupling amino acid units one by one from the C-terminal, by Fmoc SPPS (9-flourenlymethyloxycarbonyl solid phase peptide synthesis) using an automated peptide synthesizer.) [Example 10]	166 ± 26%	
Glu-Leu-Arg-Leu-Asp (ELRLD; Artificial peptide sequence prepared by coupling amino acid units one by one from the C-terminal, by Fmoc SPPS (9-flourenlymethyloxycarbonyl solid phase peptide synthesis) using an automated peptide synthesizer.) [Example 5]	149 ± 27%	
Glu-Leu-Arg-Leu-Glu [Example 6]	158 ± 38%	
Glu-Leu-His-Leu-Asp (ELHLD; Artificial peptide sequence prepared by coupling amino acid units one by one from the C-terminal, by Fmoc SPPS (9-flourenlymethyloxycarbonyl solid phase peptide synthesis) using an automated peptide synthesizer.) [Example 1]	155 ± 12%	damaged region of explant, hematoxylin & eosin staining (FIG. 4) ([2]; 6-week culture, 25 μM peptide and/or 2 ng/ml TGFβ1): the damaged region was narrowed; changes in damaged region of explant (micrograph, FIG. 1) ([2]; after 2 weeks): gradually decreased; changes in damaged region of explant (micrograph, FIG. 1) ([2]; after 4 weeks, with or without 2 ng/ml TGFβ1): cells began to adhere around the damaged region; changes in damaged region of explant (micrograph, FIG. 1) ([2]; after 6 weeks, with or without 2 ng/ml TGFβ1): remarkably reduced; decrease in the expression of MMP13, as compared to the control group [3]: 10%; decrease in the expression of type X collagen (COL10A1), as compared to the control group [4]: 69%; proteoglycan in the cartilage matrix, Safranin O staining (FIG. 10) ([5]; 30 μM and 90 μM): increased synthesis of proteoglycan in a dose-dependent manner; articular cartilage tissue observed by naked eyes (FIG. 8) ([5]; 30 μM, 90 μM): smooth surface and gloss close to the normal state; H&E staining pattern of cartilage tissue (FIG. 9) [5]: staining pattern similar to that of the normal group; cell size in H&E staining (FIG. 9) [5]: increased cell size; increase in the expression of type II collagen, as compared to the control group ([1]; 25 μM peptide, normalized to GAPDH): 55%
Glu-Leu-His-Leu-Glu (ELHLE; Artificial peptide sequence prepared by coupling amino acid units one by one from the C-terminal, by Fmoc SPPS (9-flourenlymethyloxycarbonyl solid phase peptide synthesis) using an automated peptide synthesizer.) [Example 2]	163 ± 19%	
Glu-Leu-Lys-Leu-Asp (ELKLD; Artificial peptide sequence prepared by coupling amino acid units one by one from the C-terminal, by Fmoc SPPS (9-flourenlymethyloxycarbonyl solid phase peptide synthesis) using an automated peptide synthesizer.) [Example 3]	161 ± 29%	
Glu-Leu-Lys-Leu-Glu (ELKLE; Artificial peptide sequence prepared by coupling amino acid units one by one from the C-terminal, by Fmoc SPPS (9-flourenlymethyloxycarbonyl solid phase peptide synthesis) using an automated peptide synthesizer.) [Example 4]	124 ± 12%	
